Values quoted from earlier work as cited in patent US20210127703A1, “FOOD PRODUCT USING AN IMPROVED SUGAR” (priority 2019, published 2021).

Tests used:
[1] = in vivo
[2] = transdermal; higher than for Δ8-THC
[3] = system: liver microsomal drug-metabolizing enzymes; details: in vitro; inhibiting hexobarbital metabolism in humans
[4] = ingestion of 20 mg of THC in a chocolate cookie
[5] = after application of a dermal patch

C=C(C)[C@@H]1CCC(C)=C[C@H]1c1c(O)cc(CCCCC)cc1O [CBD, cannabidiol]
excretion in the feces [1]: a large proportion of the dose is excreted unchanged in the feces
permeability relative to Δ8-THC [2]: 10 fold
inhibition of liver microsomal drug-metabolizing enzymes [3]: in vitro inhibitor of liver microsomal drug-metabolizing enzymes
effect of CBD on pharmacokinetics of THC (CYP 2C; Hunt et al., except for a slight slowing of metabolism of 11-OH-THC to THC-COOH): not affected
inhibition of hydroxylation of THC to 11-OH-THC catalyzed by CYP 2C (CYP 2C; oral THC alone compared to a THC and CBD preparation): only partially inhibited

CCCCCc1cc(O)c2c(c1)OC(C)(C)c1ccc(C)cc1-2 [CBN]
permeability relative to Δ8-THC [2]: 10 fold

CCCCCc1cc(O)c2c(c1)OC(C)(C)[C@@H]1CCC(C)=C[C@@H]21 [THC]
time of peak THC concentration following ingestion [4]: 1 to 5 h

CCCCCc1cc(O)c2c(c1)OC(C)(C)[C@@H]1CC=C(C)C[C@@H]21 [Δ8-THC]
duration steady-state plasma concentration maintained [5]: at least 48 h
mean steady-state plasma concentration [5]: 4.4 ng/mL
time to steady-state plasma concentration [5]: ≤ 1.4 h
